Experimental data published in patent US11730705B2, “Small molecule CMKLR1 antagonists in inflammatory disease” (The Board of Trustees of the Leland Stanford Junior …, priority 2019, dated 2023).
Values joined by “and” are separate entries in the source; they are usually repeats but may differ in a detail not shown here. Identical values can stand only once. Like-named read-outs stand apart in the source and are kept apart here.

Assays:
[1] = biological target: T1, hERG (Homo sapiens, UniProt Q12809); assay: hERG inhibition patch-clamp assay, CHO-hERG cells; assay type: cell-based; conditions: hERG tail current, preliminary studies
T1 construct: host or cells: CHO
T1 sequence (Q12809 whole entry): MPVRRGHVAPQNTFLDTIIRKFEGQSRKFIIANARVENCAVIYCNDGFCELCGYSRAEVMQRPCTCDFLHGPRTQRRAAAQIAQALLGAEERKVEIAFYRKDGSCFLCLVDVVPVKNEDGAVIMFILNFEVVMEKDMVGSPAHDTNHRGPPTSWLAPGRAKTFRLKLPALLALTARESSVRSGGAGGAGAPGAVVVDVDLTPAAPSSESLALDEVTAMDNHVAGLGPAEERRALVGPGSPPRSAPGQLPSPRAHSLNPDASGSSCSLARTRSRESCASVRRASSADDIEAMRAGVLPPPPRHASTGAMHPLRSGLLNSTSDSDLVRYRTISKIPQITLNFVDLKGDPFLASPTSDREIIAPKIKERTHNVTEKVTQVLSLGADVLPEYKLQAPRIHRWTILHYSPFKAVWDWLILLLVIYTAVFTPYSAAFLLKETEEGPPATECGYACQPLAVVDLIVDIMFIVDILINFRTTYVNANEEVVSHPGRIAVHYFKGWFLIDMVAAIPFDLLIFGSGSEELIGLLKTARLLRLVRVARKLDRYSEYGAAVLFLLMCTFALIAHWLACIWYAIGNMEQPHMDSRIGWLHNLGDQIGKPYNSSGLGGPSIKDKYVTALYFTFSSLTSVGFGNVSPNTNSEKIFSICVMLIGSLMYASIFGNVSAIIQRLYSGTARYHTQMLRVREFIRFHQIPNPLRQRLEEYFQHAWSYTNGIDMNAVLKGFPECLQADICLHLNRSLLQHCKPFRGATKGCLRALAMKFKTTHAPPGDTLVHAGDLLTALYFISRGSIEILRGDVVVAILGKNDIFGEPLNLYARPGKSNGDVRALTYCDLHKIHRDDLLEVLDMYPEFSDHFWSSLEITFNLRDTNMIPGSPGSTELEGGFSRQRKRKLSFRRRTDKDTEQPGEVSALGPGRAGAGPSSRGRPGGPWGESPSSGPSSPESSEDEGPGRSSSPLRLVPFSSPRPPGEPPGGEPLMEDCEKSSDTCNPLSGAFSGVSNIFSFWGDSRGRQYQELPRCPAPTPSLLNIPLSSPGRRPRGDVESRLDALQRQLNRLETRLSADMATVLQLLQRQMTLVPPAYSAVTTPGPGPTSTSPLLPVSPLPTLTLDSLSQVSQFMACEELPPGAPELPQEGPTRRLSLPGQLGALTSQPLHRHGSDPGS
Procedure: Pregnane X receptor (PXR) activation was used as a marker of Cyp induction.
The cell was depolarized, and the hERG tail current was measured, and IC50 determined (Cyprotex/Evotec AG).

[2] = biological target: Cyp3A4 (Homo sapiens, UniProt P08684); assay: Cyp enzyme inhibition, human liver microsomes; assay type: in vitro ADME; design: Human liver microsomes were pre-incubated with 7 concentrations; tissue Cyprotex/Evotec AG; host or cells: human liver microsomes
Cyp3A4, sequence (P08684 whole entry): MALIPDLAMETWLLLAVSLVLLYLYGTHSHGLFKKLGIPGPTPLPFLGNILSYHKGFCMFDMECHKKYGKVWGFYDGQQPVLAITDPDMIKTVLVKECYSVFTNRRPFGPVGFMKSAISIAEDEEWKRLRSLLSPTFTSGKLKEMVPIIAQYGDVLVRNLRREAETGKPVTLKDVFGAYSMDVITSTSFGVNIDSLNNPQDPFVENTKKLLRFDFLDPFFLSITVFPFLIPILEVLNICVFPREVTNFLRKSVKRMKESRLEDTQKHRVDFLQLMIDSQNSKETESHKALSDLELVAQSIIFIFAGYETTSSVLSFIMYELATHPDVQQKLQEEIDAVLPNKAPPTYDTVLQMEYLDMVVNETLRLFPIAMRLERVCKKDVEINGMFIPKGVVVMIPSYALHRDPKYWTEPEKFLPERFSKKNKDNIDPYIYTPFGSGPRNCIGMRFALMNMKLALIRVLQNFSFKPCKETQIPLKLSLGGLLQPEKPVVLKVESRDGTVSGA
Procedure: Cyp enzyme inhibition. Human liver microsomes were pre-incubated with 7 concentrations ([…], duplicate wells) of α-NETA for 30 min.

[3] = biological target: T2, Cyp2D6 (Homo sapiens, UniProt P10635); conditions: PubChem BioAssay ID 1461; read-out: Cyp Inhibition IC50 (μM), Cyp2D6; cited from earlier work
T2 construct: tissue Cyprotex/Evotec AG; host or cells: human liver microsomes
T2 sequence (P10635 whole entry): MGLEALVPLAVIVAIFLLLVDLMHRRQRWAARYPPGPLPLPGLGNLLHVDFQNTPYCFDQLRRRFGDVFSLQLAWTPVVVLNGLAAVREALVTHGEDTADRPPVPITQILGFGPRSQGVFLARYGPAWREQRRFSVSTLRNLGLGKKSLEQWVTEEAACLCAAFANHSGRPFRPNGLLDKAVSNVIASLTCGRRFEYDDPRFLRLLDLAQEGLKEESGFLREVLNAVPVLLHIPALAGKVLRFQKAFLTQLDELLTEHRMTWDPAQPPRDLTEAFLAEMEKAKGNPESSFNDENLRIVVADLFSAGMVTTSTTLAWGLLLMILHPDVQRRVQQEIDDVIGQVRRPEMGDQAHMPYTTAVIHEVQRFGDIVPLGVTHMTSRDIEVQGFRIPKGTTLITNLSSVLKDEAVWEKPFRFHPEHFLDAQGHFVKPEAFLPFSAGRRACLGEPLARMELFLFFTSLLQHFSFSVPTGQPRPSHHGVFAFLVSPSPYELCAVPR

Question: With `C[N+](C)(C)CCC(=O)c1cccc2ccccc12.[I-]` [α-NETA, 2-(α-naphthoyl) ethyltrimethylammonium iodide] as the molecule, how does the IC50 [1] read?
Answer: > 10 µM

Question: And the IC50 ([2]; human liver microsomes, substrate Midazolam, read-out: Cyp Inhibition IC50 (μM), Cyp3A4)?
Answer: 7.4 µM and 7.5 µM

Question: And the IC50 ([2]; substrate testosterone, read-out: Cyp3A4 IC50)?
Answer: 6.9 µM

Question: And the IC50 [3]?
Answer: > 10 µM
